{"source": "patent US20250073250A1", "about": "“Improved synthesis of lysine acetylsalicylate - Glycine particles” (AspiAir GmbH, priority 2022, published 2025)", "type_in_all_cases": "physicochemical", "key": {"[1]": {"assay": "Stability in aqueous solution (salicylic acid content by HPLC)", "method": "Due to its instability in water, LASAG is commonly used as a dry powder, and specifically as a dry powder for reconstitution; in other words, an aqueous solution thereof is not necessarily meant to be stored for extended periods of time but instead is prepared freshly prior to each use. Stability in aqueous solution is nonetheless an important feature for users, for instance, in order to know how long a prepared solution can still be used; a content of ≤1.5 wt.-% of the LASAG-degradant salicylic acid (SA) in a solution is typically considered acceptable. […] In between sample time points, the vials were kept closed.\nThe following time points were measured:\nFor the HPLC-analysis, an Agilent Zorbax SB-C18 column was used (4.6×250 mm, 5 μm) at 22° C. with isocratic elution over 40 minutes at an eluent flow rate of 1 mL/min. The eluent was an 80 mM ammonium acetate/acetonitrile solution (60:40) prepared by dissolving 4 g ammonium acetate in 600 mL HPLC-grade water, adjusting the pH to 2.0 using trifluoroacetic acid, then adding 400 mL acetonitrile and homogenising the mixture. The injected sample volume was 10 μL. A UV-detector was used at 237 nm to analyse the samples."}, "[2]": {"assay": "Manual dissolution of 1000 mg LASAG in 8 mL glass vial with 5 mL water for injection", "settings": "1000 mg in 5 mL water for injection, 8 mL vial", "source_text": "As mentioned above, by controlling the particle size of the LASAG, it is possible to control parameters such as the dissolution speed (also referred to as dissolution rate). […] Special precautionary measures” that the reconstituted solution should preferably be filtered with a 5 μm filter before its application, as such indicating potential issues with (quick) dissolution. Especially, when considering that LASAG is inter alia employed in the treatment of myocardial infarction, i.e., an acute health crisis where time is of critical importance, a faster, more readily occurring dissolution of the LASAG used, can represent a clinically relevant advantage.\nAn amount of 5 mL water for injection purposes was injected through the sealing stopper over the course of about 25-30 seconds, the needle then removed, and the vial shaken, or swirled, manually until complete dissolution (no residual solids visible to the human eye). The same test was performed with a commercially available Aspirin® i.v. vial. Each test was repeated at least 3 times per type of LASAG. This test and the resulting dissolution behaviour are considered similar to what is likely to be observed by, for instance, paramedics in an ambulance or medical staff in hospitals upon dissolving the dry LASAG particles in pre-filled vials by adding water for injection purposes and shaking manually. […]"}, "[3]": {"assay": "Specific surface area by BET gas adsorption", "source_text": "Without wishing to be bound by theory, it seems possible that not only the smaller median particle size of the LASAG according to the present invention is responsible for its faster dissolution but also its higher specific surface area."}, "[4]": {"assay": "Glass adhesion in 8 mL glass vial (gravimetric)", "method": "After opening the vial and emptying out any non-adhered powder by simple gravitational spill, the vial with the adhered particles inside is weighed again, to thereby gravimetrically determine the weight of the adhered particles. Low glass adhesion facilitates handling of the vials (e.g., better visibility into the vial), and ensures that the complete intended dose is dissolved upon adding water to the vial (rather than, for instance, some material sticking to the upper end of the vial, near the stopper, where the water, that is added into the vial via injection through a needle, may not reach). […] On at least five consecutive days, the vial was manually moved, or rotated, once daily around all its axes to properly disperse the LASAG particles and allow them to coat the inner glass surface. After seven days, the vials were emptied by simply turning them upside down and allowing all non-adhering powder to spill out, or fall out, under gravity, followed by firmly tapping the vial five times onto a solid surface. No noteworthy adhesion to the stopper was observed. The weight of the remainder, i.e., the weight of the LASAG powder still sticking to the glass wall inside the vial after emptying, was determined gravimetrically. The same test was performed with a commercially available Aspirin® i.v. vial."}, "[5]": {"assay": "Storage stability in dry state in aluminium-lined polyethylene bags", "method": "At 5±3° C. […] After continuation of the cold storage stability study for a further 12 months, this stability finding is reconfirmed, with the extrapolated value being increased to from 70.9±3.5 months to 200±5 months."}, "[6]": {"assay": "Dissolution on horizontal shaker", "settings": "1000 mg in 5 mL water, 25 mL test tube, horizontal shaker 1055 rpm, 5 s intervals", "method": "An amount of 5 mL water for injection purposes was added, and the vial shaken in intervals of 5 seconds at 1055 rpm until complete dissolution (no residual solids visible to the human eye). The same test was performed with a commercially available Aspirin® i.v. vial. Each test was repeated at least 3 times per type of LASAG."}, "[7]": {"assay": "Particle size distribution (PSD) by laser diffraction", "settings": "for Dv10 / Dv50 / Dv90: volume-based", "method": "Unless mentioned otherwise, the particle size values provided herein (either measured or calculated/derived from measured values) refer to particle diameters and were determined using a laser diffraction device, and its related evaluation software (here, for instance, a Mastersizer® device from Malvern Instruments Ltd.); all laser diffraction measurements complied with ISO-13320 standards. Where referring to the particle size measurements, all percentages provided herein (such as ‘at least 90% of the particles have a particle size of . . . ’) are to be understood as volume-percentages. […] Where available, three or more batches of the substances were tested, and mean values of their PSD-data obtained."}, "[8]": {"settings": "listed as LASAG 2 (batch in clinical study)"}}, "note": "Like-named read-outs stand apart in the source and are kept apart here.", "data": [{"smiles": "CC(=O)Oc1ccccc1C(=O)O.NCC(=O)O.NCCCCC(N)C(=O)O", "note": "(racemic) [LASAG 2, lysine acetylsalicylate⋅glycine]", "values": [{"measurement": "time at which solution exceeds 1.5 wt.-% salicylic acid content", "setting": "[1]; 1.0 g in 5.0 mL water, room temperature (20±5° C.)", "result": "about 1 h"}, {"measurement": "changes in colour or clarity of solution", "setting": "[1]; over time range and storage conditions tested", "result": "None"}, {"measurement": "shaking/swirling motions until complete dissolution", "setting": "[2]; manual", "result": "3-5"}, {"measurement": "time from removing the needle until complete dissolution", "setting": "[2]; manual shaking/swirling", "result": "15 to 30", "unit": "s"}, {"measurement": "specific surface area", "setting": "[3]", "result": "2.4±0.1", "unit": "m^2/g"}, {"measurement": "weight remaining in the vial (adhering to glass)", "setting": "[4]; 1000 mg in 8 mL vial, after seven days, emptied and tapped", "result": "5.12 ± 0.35", "unit": "mg"}, {"measurement": "glass adhesion per inner glass surface", "setting": "[4]; inner glass surface approx. 29 cm^2", "result": "about 0.177 mg/cm^2"}, {"measurement": "Time until reaching salicylic acid threshold of 1.5%", "setting": "[5]; 5±3° C., extrapolated after continuation of study for a further 12 months", "result": "200±5", "unit": "months"}, {"measurement": "Time until reaching salicylic acid threshold of 1.5%", "setting": "[5]; 5 ± 3° C., n = 3, extrapolated, listed as LASAG according to present invention", "result": "70.9 ± 3.5", "unit": "months"}, {"measurement": "Time until reaching salicylic acid threshold of 1.5%", "setting": "[5]; 25 ± 2° C. 60 ± 5% r.h., n = 3", "result": "10.3 ± 2.0", "unit": "months"}, {"measurement": "Time until reaching salicylic acid threshold of 1.5%", "setting": "[5]; 30 ± 2° C. 65 ± 5% r.h., n = 3", "result": "3.5 ± 1.2", "unit": "months"}, {"measurement": "Time until reaching salicylic acid threshold of 1.5%", "setting": "[5]; 40 ± 2° C. 75 ± 5% r.h., n = 3", "result": "0.2 ± 0.0", "unit": "months"}, {"measurement": "time until complete dissolution", "setting": "[6]", "result": "18.3 ± 2.9", "unit": "s"}, {"measurement": "1st max. of particle size distribution", "setting": "[7]", "result": 20.4, "unit": "μm"}, {"measurement": "1st max. of particle size distribution", "setting": "[7]; [8]", "result": 18.7, "unit": "μm"}, {"measurement": "Dv10", "setting": "[7]", "result": 4.2, "unit": "μm"}, {"measurement": "Dv50", "setting": "[7]", "result": 18.4, "unit": "μm"}, {"measurement": "Dv90", "setting": "[7]", "result": 53.3, "unit": "μm"}, {"measurement": "Dv10", "setting": "[7]; [8]", "result": 3.8, "unit": "μm"}, {"measurement": "Dv50", "setting": "[7]; [8]", "result": 16.3, "unit": "μm"}, {"measurement": "Dv90", "setting": "[7]; [8]", "result": 40.4, "unit": "μm"}, {"measurement": "Dv90", "setting": "[7]; listed as LASAG of the present invention", "result": "about 50 μm"}]}]}
